According to patent US11236083B2, “Compounds and pharmaceutical compositions for modulating SGK activity, and methods thereof” (NEW ERA PHARMA, INC., priority 2016, dated 2022):

Molecular target: T1, hERG channels (Homo sapiens, UniProt Q12809)
T1 construct: expressed in transfected cells
Assay: Qpatch hERG assay (automated patch clamp, whole-cell tail current)
Assay type: cell-based
Conditions: for IC50: CHO cell line stably expressing hERG channels, highest test concentration 30 μM
Experimental: • Assay platform & method: Automated patch clamp (Qpatch-48) • Cell source: CHO cell line stably expressing hERG channels • Measured parameter: Whole-cell tail current of hERG channels • Test concentration: 6 concentrations (30, 10, 3, 1, 0.3, 0.1 μM)
Example: Qpatch hERG Assay

T1 sequence (Q12809 whole entry): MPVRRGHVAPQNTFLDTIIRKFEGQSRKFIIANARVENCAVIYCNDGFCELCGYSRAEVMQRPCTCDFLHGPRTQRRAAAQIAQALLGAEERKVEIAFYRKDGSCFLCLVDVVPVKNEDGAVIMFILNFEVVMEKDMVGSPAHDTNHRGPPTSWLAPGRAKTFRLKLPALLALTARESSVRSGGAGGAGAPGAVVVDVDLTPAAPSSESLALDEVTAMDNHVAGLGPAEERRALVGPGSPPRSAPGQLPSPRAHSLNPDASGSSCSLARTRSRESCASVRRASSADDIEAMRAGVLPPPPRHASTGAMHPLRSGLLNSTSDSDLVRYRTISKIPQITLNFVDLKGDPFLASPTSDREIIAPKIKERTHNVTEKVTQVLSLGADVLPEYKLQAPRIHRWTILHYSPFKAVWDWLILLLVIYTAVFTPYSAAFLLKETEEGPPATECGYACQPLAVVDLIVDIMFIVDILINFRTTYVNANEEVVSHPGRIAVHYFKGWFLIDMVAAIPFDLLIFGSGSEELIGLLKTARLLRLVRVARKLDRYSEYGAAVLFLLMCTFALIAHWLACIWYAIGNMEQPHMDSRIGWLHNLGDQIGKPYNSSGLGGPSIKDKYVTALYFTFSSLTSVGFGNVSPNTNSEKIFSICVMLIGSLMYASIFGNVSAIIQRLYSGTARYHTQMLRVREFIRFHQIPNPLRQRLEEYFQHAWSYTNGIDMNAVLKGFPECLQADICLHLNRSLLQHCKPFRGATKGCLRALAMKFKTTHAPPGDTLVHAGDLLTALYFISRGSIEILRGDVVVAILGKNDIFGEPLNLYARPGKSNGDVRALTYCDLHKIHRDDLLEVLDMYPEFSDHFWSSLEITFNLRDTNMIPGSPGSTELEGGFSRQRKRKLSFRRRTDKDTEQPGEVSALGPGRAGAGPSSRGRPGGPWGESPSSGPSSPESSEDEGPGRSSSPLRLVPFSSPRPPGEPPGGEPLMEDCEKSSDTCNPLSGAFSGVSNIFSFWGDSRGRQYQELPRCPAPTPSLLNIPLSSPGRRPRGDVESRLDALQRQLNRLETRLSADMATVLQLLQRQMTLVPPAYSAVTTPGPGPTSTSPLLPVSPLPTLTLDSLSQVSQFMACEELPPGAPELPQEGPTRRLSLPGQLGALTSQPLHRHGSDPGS

Structure (SMILES): COc1ccc(F)c(S(=O)(=O)Nc2ccc(-c3cc4[nH]nc(N)c4c(C)n3)cc2)c1 [D, N-(4-(3-amino-4-methyl-1H-pyrazolo[4,3-c]pyr-idin-6-yl)phenyl)-2-fluoro-5-methoxybenzenesulfonamide]
- IC50: 12.2 µM
- Fitting curve Hillslope (Qpatch hERG concentration-response fit): Fitting curve Hillslope = 0.88

Structure (SMILES): COc1ccc(F)c(S(=O)(=O)Nc2ccc(-c3cc(C)c4c(N)n[nH]c4n3)cc2)c1 [E, N-(4-(3-amino-4-methyl-1H-pyrazolo[3,4-b]-pyridin-6-yl)phenyl)-2-fluoro-5-methoxybenzenesulfonamide]
- IC50: > 30 µM

Structure (SMILES): COc1ccc(F)c(S(=O)(=O)Nc2ccc(-c3cc(OC)c4c(N)n[nH]c4c3)cc2)c1 [C, N-(4-(3-amino-4-methoxy-1H-indazol-6-yl)-phenyl)-2-fluoro-5-methoxybenzenesulfonamide]
- IC50: > 30 µM
